Test results reported in US20250064799A1, “ORAL FORMULATIONS OF LEVOSIMENDAN FOR TREATING PULMONARY HYPERTENSION WITH HEART FAILURE WITH PRESERVED EJECTION FRACTION” (Tenax Therapeutics, Inc., priority 2021, published 2025).
Several values for one entry are separate records, joined by “and”; a condition that tells them apart may be missing. Equal values may be shown once.

Experiments:
patients with PH-HFpEF [1] = experiment: TNX-LVO-05 open-label extension, weekly 24-hour I.V. levosimendan: 6MWT and HR; format: in vivo, human; set-up: TNX-LVO-05 (WK 24/48) 6MWT: unit not given beside the values; details: individual patients, week 24/48
Description: (§1) PH-HFpEF is a progressive, fatal disease for which there are no approved therapies. All patients that the 6-week parent TNX-LVO-04 study (also referred to as the initial Help Study) underwent assessments of safety and efficacy in a double-blind randomized protocol. […] For these reasons, all participating patients were allowed to enter an open-label extension study (also referred to as TNX-LVO-05), to provide ongoing levosimendan therapy for two additional years.
The efficacy of the once weekly levosimendan regimen is supported by an active metabolite with an extended half-life of 70-80 hours. The metabolite peaks approximately two days after completing the weekly dose, declining through the remainder of the week. Data from the parent TNX-LVO-04 study indicate patients' response to therapy peaks early in the week, followed by a decline in keeping with exposure to the active metabolite. Patients that entered TNX-LVO-05 were required to undergo the insertion of a port-a-cath, learn how to self-administer the levosimendan infusion through a port-a-cath at home, and weekly administer IV levosimendan through their port-a-cath for 24 hours. It is important to note that patients who entered TNX-LVO-05 have chosen to continue their 24-hour weekly levosimendan dose regimen, acknowledging that patients recognize the benefits of the drug.

[2] = test system: Patient 019-002 with PH-HFpEF; experiment: HELP Study 24-hour open label lead-in infusion, rest and exercise right heart catheterization, Patient 019-002; format: in vivo, human
Experimental: FIG. 3: Pulmonary Capillary Wedge Pressure (PCWP) of Patient […] of HELP Study.
During the HELP Study, as described in PCT International Application Publication No. WO 2021/126884, the entire contents of which are incorporated by reference, Patient 019-002 was administered empagliflozin shortly after beginning levosimendan therapy.
Specifically, Patient 019-002 had established PH-HFpEF and was initially enrolled into the HELP Trial. The diagnosis of PH-HFpEF was confirmed by rest and exercise right heart catheterization. […] The PCWP of 35 mmHg at rest increased with exercise to 55 mmHg at baseline. […] Thus, levosimendan produced a 40% fall in resting PCWP and a 33% fall in exercise PCWP. In addition, at baseline the CVP was 18 mmHg and increased to 30 mmHg with exercise. Following the 24 hours of i.v. levosimendan the CVP fell to 12 mmHg at rest and to 21 mmHg with exercise. Thus, levosimendan produced a 33% fall in resting CVP, and a 30% fall in CVP with exercise. Accordingly, the response of Patient 019-002 to levosimendan treatment was typical of other patients in the study in terms of improvements to their hemodynamic profile (FIG. 3).

patients with PH-HFpEF [3] = experiment: HELP Study (TNX-LVO-04), weekly I.V. levosimendan for 6 weeks; format: in vivo, human; set-up: HELP (WK 6) 6MWT: unit not given here
Description: The initial HELP Study is described in PCT International Application Publication No. WO 2021/126884 and Burkhoff, et al. (2021) “Levosimendan improves hemodynamics and exercise tolerance in PH-HFpEF: results of the randomized placebo-controlled HELP trial,” the entire contents of each of which are incorporated by reference. […] Among the goals of the extension study was to determine the dose of oral levosimendan that could maintain the efficacy of the weekly I.V. infusions of levosimendan.
as §1, with “years. […]” for “years.”

[4] = in vivo; cited from earlier work
[5] = 24 hours of i.v. levosimendan vs baseline
[6] = individual patients, Active arm of HELP Study, weekly I.V. levosimendan, week 6

Structure (SMILES): C[C@@H]1CC(=O)NN=C1c1ccc(NN=C(C#N)C#N)cc1 [levosimendan]
- TNX-LVO-05 (WK 24/48) 6MWT (patients with PH-HFpEF [1]): 310 and 180 and 312 and 255 and 347 and 393 and 313 and 91 and 274 and 213 and 225 and 174 and 590
- TNX-LVO-05 (WK 24/48) HR (patients with PH-HFpEF [1]): 62 (3×) and 64 and 85 (2×) and 70 and 69 and 74 and 58 and 73 and 82 and 75 and 87 and 65 and 78 and 77 and 91
- fall in CVP with exercise [2, 5]: 30%
- fall in exercise PCWP [2, 5]: 33%
- fall in resting CVP [2, 5]: 33%
- fall in resting PCWP [2, 5]: 40%
- CVP at rest ([2]; following 24 hours of i.v. levosimendan (baseline 18 mmHg)): 12 mmHg
- CVP with exercise ([2]; following 24 hours of i.v. levosimendan (baseline 30 mmHg)): 21 mmHg
- PCWP at rest ([2]; following 24 hours of i.v. levosimendan (baseline 35 mmHg)): 21 mmHg
- PCWP with exercise ([2]; following 24 hours of i.v. levosimendan (baseline 55 mmHg)): 37 mmHg
- pulmonary capillary wedge pressure (PCWP) after levosimendan administration (FIG. 3) ([2]; single 24-hour open label lead-in infusion): decrease
- HELP (WK 6) 6MWT (patients with PH-HFpEF [3]; [6]): 311 and 397 and 270 and 218 and 232 and 401 and 196 and 482
- HELP (WK 6) HR (patients with PH-HFpEF [3]; [6]): 72 and 63 (2×) and 86 and 71 and 67 and 75 (2×)
- average improvement of 6-minute walk distance (patients with PH-HFpEF [3]; levosimendan alone, PH-HFpEF patients): approximately 29 m
- effect on pulmonary vascular resistance (patients with PH-HFpEF [3]; particularly upon chronic administration): did not decrease
- parent half-life [4]: approximately 1 hour
